Measured values from patent US8552022B2, “Substituted cyclopropyl compounds, compositions containing such compounds and methods of treatment” (Merck Sharp & Dohme Corp., priority 2009, dated 2013).

Target: T1, GPR119 (UniProt Q8TDV5, S309L, species not given)
T1 sequence (Q8TDV5 1-335 S309L): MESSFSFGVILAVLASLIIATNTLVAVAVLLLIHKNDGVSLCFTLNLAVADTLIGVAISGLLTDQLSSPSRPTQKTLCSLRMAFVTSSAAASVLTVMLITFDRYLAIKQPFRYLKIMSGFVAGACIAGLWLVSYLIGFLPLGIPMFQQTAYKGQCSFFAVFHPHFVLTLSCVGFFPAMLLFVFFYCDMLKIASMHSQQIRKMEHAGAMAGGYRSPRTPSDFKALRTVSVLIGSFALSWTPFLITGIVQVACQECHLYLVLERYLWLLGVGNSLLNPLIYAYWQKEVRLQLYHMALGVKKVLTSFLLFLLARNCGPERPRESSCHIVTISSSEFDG
Test: GPR119 signaling, cyclic AMP (cAMP) HTRF assay
Format: cell-based, human (S309L variant) or murine
Conditions: CHO cells with Gα15 and murine GPR119 or HEK293 Flp-In cells with human GPR119 S309L, read-out: EC50 (agonist activation of GPR119, cAMP)
From the text: The title compound was synthesized using 2-{2-[1-(5-chloropyrimidin-2-yl)piperidin-4-yl]cyclopropyl}ethyl 4-methylbenzenesulfonate from step 1 of this example by a general procedure analogous that described in Example 59. LRMS calc: 424.9; obs: 425.01 (M+1). Measurement of GPR119Signaling Using a Cyclic AMP (cAMP) Homogenous Time Resolved Fluorescence (HTRF) Assay
Chinese hamster ovary (CHO) cell lines stably transfected with the permissive guanine nucleotide binding protein alpha 15 (Gα15) and murine GPR119 were maintained in DMEM media containing FBS, penicillin-streptomycin, puromycin, and G418 (geneticin). Alternatively, human embryonic kidney (HEK)293 Flp-In cells (Invitrogen, Carlsbad, Calif.) were stably transfected with a human SNP variant (S309L) of GPR119 and maintained in DMEM media containing FBS, penicillin-streptomycin, and hygromycin. Agonist activation of the GPR119 receptor was measured in receptor transfected cells described above, treated with compounds of this invention, using a commercial homogenous time resolved fluorescence (HTRF) kit for measurement of cAMP (CisBio, Bedford, Mass.). The assay was performed in 96-well half-volume plates (murine) or 384-well plates (human) following the manufacturers instructions. Briefly, suspended cells were incubated with a dose titration of test compound at room temperature for 60 min, lysed, and incubated with HTRF reagents for an additional 60 min. The plate was read using an Envision multilabel reader (Perkin Elmer) adjusted to read time resolved fluorescence and the cAMP concentrations were extrapolated from a cAMP calibration curve. […] The concentration of test compound required to stimulate a half-maximal response (EC50), and efficacy as compared to an internal agonist control, was determined from a sigmoidal 4-parameter curve fit of the resulting plot of normalized activity versus compound concentration.

EC50	SMILES
< 10 nM	O=C1c2ccc(NCC[C@@H]3C[C@@H]3C3CCN(c4ncc(Cl)cn4)CC3)cc2CN1C1CC1 [Ex 46, 5-[(2-{(1S,2S)-2-[1-(5-chloropyrimidin-2-yl)piperidin-4-yl]cyclopropyl}ethyl)amino]-2-cyclopropylisoindolin-1-one]
< 10 nM	Cc1n[nH]c2ccc(NCC[C@@H]3C[C@@H]3C3CCN(c4ncc(Cl)cn4)CC3)cc12 [Ex 47, N-(2-{(1S,2S)-2-[1-(5-chloropyrimidin-2-yl)piperidin-4-yl]cyclopropyl}ethyl)-3-methyl-1H-indazol-5-amine]
10 to 50 nM	Cn1ncc2cc(NCC[C@@H]3C[C@@H]3C3CCN(c4ncc(Cl)cn4)CC3)ccc21 [Ex 48, N-(2-{(1S,2S)-2-[1-(5-chloropyrimidin-2-yl)piperidin-4-yl]cyclopropyl}ethyl)-1-methyl-1H-indazol-5-amine]
10 to 50 nM	Cn1cc2cc(NCC[C@@H]3C[C@@H]3C3CCN(c4ncc(Cl)cn4)CC3)ccc2n1 [Ex 49, N-(2-{(1S,2S)-2-[1-(5-chloropyrimidin-2-yl)piperidin-4-yl]cyclopropyl}ethyl)-2-methyl-2H-indazol-5-amine]
10 to 50 nM	O=C1Cc2cc(NCC[C@@H]3C[C@@H]3C3CCN(c4ncc(Cl)cn4)CC3)ccc2N1 [Ex 50, 5-[(2-{(1S,2S)-2-[1-(5-chloropyrimidin-2-yl)piperidin-4-yl]cyclopropyl}ethyl)amino]-1,3-dihydro-2H-indol-2-one]
< 10 nM	CN1C(=O)Cc2cc(NCC[C@@H]3C[C@@H]3C3CCN(c4ncc(Cl)cn4)CC3)ccc21 [Ex 51, 5-[(2-{(1S,2S)-2-[1-(5-chloropyrimidin-2-yl)piperidin-4-yl]cyclopropyl}ethyl)amino]-1-methyl-1,3-dihydro-2H-indol-2-one]
10 to 50 nM	CC(=O)Nc1ccc(NCC[C@@H]2C[C@@H]2C2CCN(c3ncc(Cl)cn3)CC2)cc1 [Ex 52, N-{4-[(2-{(1S,2S)-2-[1-(5-chloropyrimidin-2-yl)piperidin-4-yl]cyclopropyl}ethyl)amino]phenyl}acetamide]
< 10 nM	O=C1Cc2cc(NCC[C@@H]3C[C@@H]3C3CCN(c4ncc(Cl)cn4)CC3)cc(F)c2N1 [Ex 53, 5-[(2-{(1S,2S)-2-[1-(5-chloropyrimidin-2-yl)piperidin-4-yl]cyclopropyl}ethyl)amino]-7-fluoro-1,3-dihydro-2H-indol-2-one]
< 10 nM	O=C1Cc2cc(NCC[C@@H]3C[C@@H]3C3CCN(c4ncc(Cl)cn4)CC3)cc(Cl)c2N1 [Ex 54, 7-chloro-5-[(2-{(1S,2S)-2-[1-(5-chloropyrimidin-2-yl)piperidin-4-yl]cyclopropyl}ethyl)amino]-1,3-dihydro-2H-indol-2-one]
< 10 nM	CC(=O)Nc1ccc(NCC[C@@H]2C[C@@H]2C2CCN(c3ncc(Cl)cn3)CC2)cn1 [Ex 55, N-{5-[(2-{(1S,2S)-2-[1-(5-chloropyrimidin-2-yl)piperidin-4-yl]cyclopropyl}ethyl)amino]pyridin-2-yl}acetamide]
< 10 nM	CC(C)(C)C(=O)Nc1ccc(NCC[C@@H]2C[C@@H]2C2CCN(c3ncc(Cl)cn3)CC2)cn1 [Ex 56, N-{5-[(2-{(1S,2S)-2-[1-(5-chloropyrimidin-2-yl)piperidin-4-yl]cyclopropyl}ethyl)amino]pyridin-2-yl}-2,2-dimethyl propanamide]
< 10 nM	Clc1cnc(N2CCC([C@H]3C[C@H]3CCNc3ccc4cn[nH]c4c3)CC2)nc1 [Ex 57, N-(2-{(1S,2S)-2-[1-(5-chloropyrimidin-2-yl)piperidin-4-yl]cyclopropyl}ethyl)-1H-indazol-6-amine]
